{"source": "patent US9464326B2", "about": "“Total and phosphorylated IL-1 receptor-associated kinase-1 and IL-1 receptor-associated kinase-4 as a biomarker for cancer progression and chemotherapy resistance” (University of Maryland, Baltimore, priority 2012, dated 2016)", "key": {"[1]": {"tested_on": "T-ALL cells from patients", "assay": "Proliferation (3H-thymidine) of patient T-ALL cells", "format": "cell-based, human", "from_the_text": "CCRF-CEM, CEM/C1, CEM/C2, CEM-C7, Jurkat, Loucy, Molt-4, HSB-2, SUP-T1, Hut 78, HH, Hut 102, MO, and H9 T-leukemia and T-lymphoma cell lines were purchased from the American Type Culture Collection (Manassas, Va., USA). All of the cell lines were initially expanded and cryopreserved within one month of receipt. Cells were typically used for 6 months at which time a fresh vial of cryopreserved cells was used. Total T cells from healthy donors were isolated via negative selection followed by positive selection using a CD3+ selection kit (Invitrogen, Carlsbad, Calif.). T cells were isolated from patients with T-ALL bone marrow or peripheral blood samples containing more than 70% leukemia cells using a CD2+ isolation kit (STEMCELL Technologies, Vancouver, Canada). All tissues were collected under institutional IRB-approved protocols and all participants gave written informed assent/consent. For in vitro experiments, T-ALL cells were cultured in AIM-V medium supplemented with 20% human AB serum in the presence of recombinant human stem cell factor (50 ng/mL; Amgen, Thousand Oaks, Calif.), insulin (20 nM; Sigma-Aldrich, St Louis, Mo., USA) and IL-7 (50 ng/mL; R&D Systems, Minneapolis, Minn., USA). […]\nCells were cultured in a 96-well plate (Corning Costar, Corning, N.Y., USA) with various concentrations of TLR ligands 1-9, starting at 10 μg/ml, in a final volume of 200 ul. […] After this time point, cells were harvested with a Packard Filter-Mate-96 cell harvester (Perkin Elmer, Waltham, Mass., USA) and counted on Packard Top Count-NXT (Perkin Elmer, Waltham, Mass., USA). Results were expressed as average counts per minute (cpm). […] Forty-eight hours later, proliferation (±SD) was determined by ^3H-thymidine incorporation. Alternatively, apoptosis was measured by flow cytometry after staining cells with Annexin-V (BD Pharmingen, San Diego, Calif., USA) and propidium iodide (Sigma). Cell number was counted under microscopy by staining cells with trypan blue."}, "CCRF-CEM cells": {"tested_on": "CCRF-CEM cells", "assay": "CCRF-CEM T-ALL numbers in NSG mice (flow cytometry)", "format": "in vivo", "procedure": "CCRF-CEM (2×10^6) cells were injected intravenously (i.v.) into female NOD.Cg-Prkdc^scid Il2rg^tm1WJl/SzJ IL2RG (NSG) mice (Jackson Laboratories, Bar Harbor, Me.). […] In some experiments mice were injected i.v. with TLR1-TLR2 ligand (2.5 μg) two days after injecting cells. In other experiments mice were injected intraperitoneally (i.p.) with IRAK-1,-4 inhibitor (10 mg/kg) 3, 6, and 9 days (CCRF-CEM cells) or 7, 10, and 13 days (patient T-ALL cells) after detecting CD7^+ T-ALL cells in circulation. The numbers of T-ALL cells in the bone marrow, spleen, liver, and in circulation were determined by staining cells with anti-human CD7 and/or CD5. To compare T-ALL numbers between groups, 10 μl of calibration microbeads (BD Pharmingen) were added to 50 μl of blood (or marrow or spleen suspensions) and the flow cytometry instrument gates were set to count a constant number of beads.\nThe therapeutic efficacy of IRAK-1,-4 inhibitor was examined in mice with T-ALL. NSG mice were injected (i.v.) with the human T-ALL cell line CCRF-CEM. Mice were intraperitoneally (i.p.) injected with IRAK-1,-4 inhibitor 3, 6, and 9 days after T-ALL cells were detected in the circulation. The number of T-ALL cells in various tissues was determined four days after the final IRAK-1,-4 inhibitor injection by staining cells with human-specific anti-CD7 antibodies and analyzing by flow cytometry. The number of T-ALL cells was counted after normalization to calibration beads.\nThe physiological significance of activating TLR-IRAK signaling and T-ALL expansion was examined in vivo. NSG mice harboring CCRF-CEM cells were injected with either TLR1-TLR2 ligand or PBS. One week later the numbers of CD5+CD7+ T-ALL cells in bone marrow and spleen were determined by flow cytometry (FIG. 5, left). To normalize the T-ALL cell count between mice, an equal volume of calibration beads was added to blood samples and the instrument gates were set to count a constant number of beads."}, "CCRF-CEM": {"tested_on": "CCRF-CEM", "assay": "Proliferation (3H-thymidine) of CCRF-CEM", "format": "cell-based, human", "from_the_text": "CCRF-CEM, CEM/C1, CEM/C2, CEM-C7, Jurkat, Loucy, Molt-4, HSB-2, SUP-T1, Hut 78, HH, Hut 102, MO, and H9 T-leukemia and T-lymphoma cell lines were purchased from the American Type Culture Collection (Manassas, Va., USA). All of the cell lines were initially expanded and cryopreserved within one month of receipt. Cells were typically used for 6 months at which time a fresh vial of cryopreserved cells was used. Total T cells from healthy donors were isolated via negative selection followed by positive selection using a CD3+ selection kit (Invitrogen, Carlsbad, Calif.). T cells were isolated from patients with T-ALL bone marrow or peripheral blood samples containing more than 70% leukemia cells using a CD2+ isolation kit (STEMCELL Technologies, Vancouver, Canada). All tissues were collected under institutional IRB-approved protocols and all participants gave written informed assent/consent. For in vitro experiments, T-ALL cells were cultured in AIM-V medium supplemented with 20% human AB serum in the presence of recombinant human stem cell factor (50 ng/mL; Amgen, Thousand Oaks, Calif.), insulin (20 nM; Sigma-Aldrich, St Louis, Mo., USA) and IL-7 (50 ng/mL; R&D Systems, Minneapolis, Minn., USA). In other experiments, protein lysate was collected using the Full Moon Biosystems (Sunnyvale, Calif., USA) buffer prior to protein examination by western blot or protein array.\nCells were cultured in a 96-well plate (Corning Costar, Corning, N.Y., USA) with various concentrations of TLR ligands 1-9, starting at 10 μg/ml, in a final volume of 200 ul. TLR ligands were diluted 2-fold. Cell lines (25-40×10^3/well) were cultured for 54 hours, whereas fresh patient-derived T-ALL cells (200×10^3/well) were cultured for 30 hours prior to adding [^3H]-thymidine for 18 hours. After this time point, cells were harvested with a Packard Filter-Mate-96 cell harvester (Perkin Elmer, Waltham, Mass., USA) and counted on Packard Top Count-NXT (Perkin Elmer, Waltham, Mass., USA). Results were expressed as average counts per minute (cpm). In some experiments CCRF-CEM cells were pre-treated with TLR1-TLR2 ligand (Pam3CysK4; 2.5 ug/ml) for 48 hrs, washed, and then cultured in the presence of varying concentrations of FBS. Forty-eight hours later, proliferation (±SD) was determined by ^3H-thymidine incorporation. Alternatively, apoptosis was measured by flow cytometry after staining cells with Annexin-V (BD Pharmingen, San Diego, Calif., USA) and propidium iodide (Sigma). Cell number was counted under microscopy by staining cells with trypan blue.\nThe following TLR ligands were purchased from Invivogen (San Diego, Calif., USA): tripalmitoyl-S-(bis(palmitoyloxy)propyl)-Cys-Ser-(Lys)3-Lys (TLR1-2); Poly I:C (TLR3); ultrapure S. Minnesota Lipopolysaccharide (TLR4); S. typhimurium flagellin (TLR5); FSL-1 (TLR2/6); Imiquimod (TLR7); ssRNA40/Lyovec (TLR8); CpG-ODN 2006 (TLR9)."}, "[2]": {"conditions": "10 mg/kg i.p. days 3, 6, 9, FIG. 17"}, "[3]": {"conditions": "10 mg/kg i.p. days 3, 6, 9, vs DMSO or untreated, p<0.05"}, "[4]": {"conditions": "TLR1-TLR2 ligand 2.5 μg i.v. vs PBS, p<0.05, FIG. 5"}}}
{"compound": "O=C(Nc1nc2ccccc2n1CCN1CCOCC1)c1cccc([N+](=O)[O-])c1", "note": "[IRAK-1,-4 inhibitor]", "values": [{"measurement": "proliferation of patient T-ALL samples", "setting": "[1]; samples with phosphorylated IRAK-1,-4, vs equal volume DMSO, FIG. 6D", "result": "Every sample exhibited reduced proliferation"}, {"measurement": "T-ALL cell numbers in the liver", "setting": "CCRF-CEM cells; [2]", "result": "only moderately reduced"}, {"measurement": "T-ALL cell numbers in the spleen", "setting": "CCRF-CEM cells; [2]", "result": "only moderately reduced"}, {"measurement": "number of CD7+ T-ALL cells in circulation", "setting": "CCRF-CEM cells; [3]", "result": "significantly reduced"}, {"measurement": "number of CD7+ T-ALL cells in the bone marrow", "setting": "CCRF-CEM cells; [3]", "result": "significantly reduced"}, {"measurement": "reduction of proliferation of TLR1-TLR2-stimulated cells", "setting": "CCRF-CEM; IRAK-1,-4 inhibitor 5 μM with TLR1-TLR2 agonist 1 μg/ml, 48 h, FIG. 3A", "result": 72, "unit": "%"}, {"measurement": "lowest concentration effective in reducing proliferation", "setting": "CCRF-CEM; concentration-dependent, 48 h, FIG. 3B", "result": 1.5, "unit": "µM"}]}
{"compound": "tripalmitoyl-S-(bis(palmitoyloxy)propyl)-Cys-Ser-(Lys)3-Lys [Pam3Cysk4]", "values": [{"measurement": "proliferation of patient T-ALL samples", "setting": "[1]; five T-ALL patient samples, TLR1-TLR2 ligand, p<0.01, FIG. 6B", "result": "Two of five samples exhibited increased proliferation"}, {"measurement": "concentrations giving increased proliferation", "setting": "[1]; responding T-ALL patient samples, FIG. 6B", "result": "above 1.25 μg/ml"}, {"measurement": "T-ALL cell number (CD5+CD7+) in the bone marrow", "setting": "CCRF-CEM cells; [4]", "result": "significantly augmented"}, {"measurement": "T-ALL cell number (CD5+CD7+) in the spleen", "setting": "CCRF-CEM cells; [4]", "result": "significantly augmented"}, {"measurement": "Proliferative effects of TLR ligands", "setting": "CCRF-CEM; 3H-thymidine uptake, 72 h", "result": "+ (enhanced proliferation by 25% or greater)"}, {"measurement": "concentration at which cells proliferated in response to the ligand", "setting": "CCRF-CEM; FIG. 1A", "result": 1.2, "unit": "µg/mL"}, {"measurement": "effect on proliferation (in words)", "setting": "CCRF-CEM; FIG. 1A", "result": "proliferated"}, {"measurement": "TLR ligand concentration in parentheses below the symbol", "setting": "CCRF-CEM; no unit in table (μg/ml)", "result": "(1.2)"}]}
